Broadly, the MIC is the lowest concentration found to suppress growth. For orientation: IC50 means the concentration needed to halve the response being measured. Broadly, the MIC50 is an inhibitory concentration at the 50% level, which refers to growth in some studies and to a panel of isolates in others.

Converted amounts (≈) assume the structure as drawn.

In assay [1] the test system is Mycobacterium tuberculosis variant bovis. In words: Antitubercular activity against Mycobacterium tuberculosis variant bovis assessed as bacterial growth inhibition. Format: functional.
Assay [2] shares this test system. In words: Antitubercular activity against Mycobacterium bovis BCG assessed as bacterial growth inhibition incubated for 24 hrs by [14C]-acetate labelling based radiometric analysis. Format: functional.
For assay [3] the test system is unchanged. As to the kind of experiment: Inhibition of mycolic acid biosynthesis in Mycobacterium bovis BCG assessed as decrease in keto-mycolic acid in presence of 14C-labeled acetic acid incubated for 60 mins by photo-stimulated luminescence analysis. It counts as functional, organism-based. The note with it: 1 h.
For assay [4] the test system is unchanged. As to the kind of experiment: Inhibition of mycolic acid biosynthesis in Mycobacterium bovis BCG assessed as decrease in methoxy-mycolic acid in presence of 14C-labeled acetic acid incubated for 60 mins by photo-stimulated luminescence analysis. It counts as functional, organism-based. The note with it: 1 h.
Assay [5] shares this test system. As to the kind of experiment: Antitubercular activity against Mycobacterium bovis assessed as bacterial growth inhibition. It counts as functional.
For assay [6] the test system is unchanged. As to the kind of experiment: Antitubercular activity against Mycobacterium bovis BCG assessed as bacterial growth inhibition. It counts as functional.
The test system is the same in assay [7]. As to the kind of experiment: Antitubercular activity against Mycobacterium bovis BCG assessed as minimum bactericidal concentration for 99.9% activity. It counts as functional. The note with it: read-out: MBC99.9.
Assay [8] has the same test system. As to the kind of experiment: Antitubercular activity against Mycobacterium bovis BCG assessed as bacterial growth inhibition incubated for 14 days by agar plate method. Format: functional. The note with it: 336 h, time 14 day.
The test system is the same in assay [9]. As to the kind of experiment: Antitubercular activity against Mycobacterium bovis BCG infected in mouse J774.A1 cells assessed as reduction in intracellular bacterial load incubated for 6 days. Format: functional. The note with it: 144 h, time 6 day.

For the compound `CCc1nc2ccc(Cl)cn2c1C(=O)NCc1ccc(N2CCC(c3ccc(OC(F)(F)F)cc3)CC2)cc1` [TELACEBEC], in [1], the MIC came to 0.0035 µM (≈ 0.00195 µg/mL).

Turning to `CCc1ccc([C@H]2C[C@@H](C(F)(F)F)n3ncc(C(=O)NCc4ccc(OC)cc4)c3N2)cc1`, the MIC in assay [2] came to 0.3 µM (≈ 0.138 µg/mL).

Regarding `C[C@@]1(COc2ccc(N3CCC(Oc4ccc(OC(F)(F)F)cc4)CC3)cc2)Cn2cc([N+](=O)[O-])nc2O1`, the IC50 in [3] is 0.69 mg/L; in assay [4], 0.63 mg/L.

`O=[N+]([O-])c1cccc2c1ccn2CCCCC[P+](c1ccccc1)(c1ccccc1)c1ccccc1`: in assay [5], the MIC50 worked out at 3 µM.

`CCCCCCCCn1cc(CN2CCCCCC2)c2c(F)cccc21`: the MIC50 in [6] is 0.3 µM (≈ 0.108 µg/mL). Further, the MBC in [7] amounted to 12 µM (≈ 4.3 µg/mL).

For `CCc1ccc([C@H]2C[C@@H](C(F)(F)F)n3ncc(C(=O)NCc4ccc5c(c4)OCO5)c3N2)cc1`, in assay [2], the MIC turned out to be 0.8 µM (≈ 0.378 µg/mL).

Take `Cc1cc2oc(=O)cc(-c3cccc(N)c3)c2c(C)c1-c1ccc(CN2CCOCC2)cc1`: the MIC in assay [8] was 0.71 µM (≈ 0.313 µg/mL).

Take `COC(=O)c1c(NC(=O)c2c(F)c(F)c(F)c(F)c2F)sc(C(N)=O)c1C`: in assay [9], the MIC is 6.4 µM (≈ 2.61 µg/mL).

Turning to `COC(=O)c1c(NC(=O)c2c(F)c(F)c(F)c(F)c2F)sc2c1CCCCC2`, the MIC in [9] turned out to be 12.8 µM (≈ 5.37 µg/mL).

On to `COc1nc2ccc(Br)cc2cc1[C@@H](c1ccccc1)[C@@](O)(CCN(C)C)c1cccc2ccccc12` [BEDAQUILINE], for which, in assay [5], the MIC turned out to be 0.003 mg/L (≈ 5.4 nM).

With `NNC(=O)c1ccncc1` [ISONIAZID], the values for the IC50 in [3] and in assay [4] were 0.021 mg/L and 0.036 mg/L, respectively.

`COc1cccc2ccn(CCCCC[P+](c3ccccc3)(c3ccccc3)c3ccccc3)c12`: in assay [5], the MIC50 was 2 µM.

As for `CCCCCCCCn1cc(CN2CCC3(CC2)OCCCO3)c2ccc(OC)cc21`, the MIC50 in assay [6] is 0.3 µM (≈ 0.129 µg/mL). Moreover, the MBC in [7] turned out to be 1.2 µM (≈ 0.514 µg/mL).
